The text below walks through data of US8415357B2 (Canbas Co., Ltd., priority 2007, dated 2013).

The subject of one assay is Jurkat cells. Briefly: Adaptation to G2 cell cycle arrest (G1 increment) in X-ray pre-arrested Jurkat cells, flow cytometry. The conditions noted are these: Homo sapiens, Jurkat, 24 h, Table 2; concentration causing half-maximal increase of % cells in G1 phase (G1 increment); Jurkat pre-arrested by 10 Gy X-ray, 24 hours with compound. Format: cell-based, human. The method, then:
Phenotype-based screening was used to measure the ability of compounds of the invention to cause adaptation to G2 cell cycle arrest in G2-arrested cells. Adaptation to G2 cell cycle arrest and re-entry into the cell cycle can result in death of the previously G2-arrested cell, or suppression (inhibition) of further proliferation of the previously G2-arrested cell. In a non-limiting embodiment, the ability to cause adaptation to G2 cell cycle arrest was measured by contacting cells in which G2 arrest had been induced by irradiation (e.g., gamma (γ) radiation or X-ray radiation), with compounds of the invention at various concentrations and, for each compound at each concentration, determining the percentage of cells that escaped G2 arrest and re-entered the cell cycle, by determining the percentage of cells in G1 phase. The IC50 value for each compound was calculated as the dosage (usually in μM) that caused half-maximal increase of the percentage of cells in G1 phase (the G1 increment) measured for that compound. Certain invention compounds were initially identified by phenotype-based screening of small molecule libraries for activity against G2-arrested cells as described above.
Jurkat cells (a human T cell lymphoma-derived cell line) were arrested at the G2 phase by X-ray irradiation at 10 Gy, and cultured for 24 hours in 10% fetal calf serum (FCS)/RPMI1640 at 37° C. with 5% CO2/air. (FCS was from Equitech-Bio, Kerrville, Tex., and RPMI1640 was from Sigma-Aldrich, St. Louis, Mo.) Test compounds were added to the medium at the indicated doses, and the cells were cultured under the conditions described above, for an additional 24 hours before harvesting.
Harvested cells were stained with Krishan's buffer (0.1% sodium citrate, 50 μg/ml propidium iodide, 20 μg/ml RNase A, 0.5% Nonidet P-40) and analyzed by flow cytometry (BD Biosciences, Franklin Lakes, N.J.) to identify the cell stage of each cell in the sample. Cells in G1 phase were identified by having […] (2N) DNA content.
The IC50 value for each compound was calculated as the dosage showing half maximal activity to induce the increase of the percentage of cells in G1 phase (the G1 increment). IC50 values were used to measure the activity of compounds and to determine structure-activity relationships.
Pre-arrested Jurkat cells were prepared as described in Example 1. Briefly, Jurkat cells were subjected to X-ray irradiation at a dose of 10 Gy, and cultured for 24 hours in 10% fetal calf serum (FCS)/RPMI1640 at 37° C. with 5% CO2/air, after which time cells were exposed to various concentrations of test compounds, and cultured under the conditions described above for an additional 24 hours before harvesting. Harvested cells were stained with Krishan's buffer (0.1% sodium citrate, 50 μg/ml propidium iodide, 20 μg/ml RNase A, 0.5% Nonidet P-40) and analyzed by flow cytometry (BD Biosciences, Franklin Lakes, N.J.) to identify the cell stage of each cell in the sample. Cells in G1 phase were identified by having […] (2N) DNA content.
The IC50 value for each compound was calculated as the dosage (concentration in μM) that caused half-maximal increase of the percentage of cells in G1 phase (the G1 increment) measured for that test compound. Table 1 below presents the structure, mass, 1H NMR values, and […] values for representative compounds.
The IC50 value for each compound was calculated as the dosage (concentration in μM) that caused half-maximal increase of the percentage of cells in G1 phase (the G1 increment) measured for that test compound. Table 2 below presents structures, IUPAC name, molecular formula, ID number (“SCID”), mass, 1H NMR values, and IC50 values for representative compounds. Table 3 presents structures, IUPAC name, molecular formula, ID number (“SCID”), mass, 1H NMR values, and IC50 values for further representative compounds.
A general note: Flow cytometry measures light scatter and fluorescence of single cells or particles in a stream.
By IC50 is commonly meant the concentration that inhibits the measured activity by half. Regarding `CC1=C(C)C(=O)N(Nc2cc(CN3CCN(Cc4ccccc4)CC3)c3ccc(Br)cc3n2)C1=O` [Compound S01268, 1-[(7-bromo-4-{[4-benzylpiperazinyl]methyl}(2-quinolyl))amino]-3,4-dimethylazoline-2,5-dione], the IC50 was found to be 625 nM.
Same read-out and setting: the figure for `CC1=C(C)C(=O)N(Nc2cc(Cl)c3ccc(Br)cc3n2)C1=O` [Compound S01311, 1-[(7-bromo-4-chloro(2-quinolyl))amino]-3,4-dimethylazoline-2,5-dione] is 300 nM; for `CC1=C(C)C(=O)N(Nc2ccc(C(F)(F)F)c(-c3ccc(F)c(Cl)c3)n2)C1=O` [Compound S01313, 1-{[6-(3-chloro-4-fluorophenyl)-5-(trifluoromethyl)(2-pyridyl)]amino}-3,4-dimethylazoline-2,5-dione] it is 300 nM; for `CC1=C(C)C(=O)N(Nc2ccc(C(F)(F)F)c(-c3ccc(Cl)cc3)n2)C1=O` [Compound S01371, 1-{[6-(4-chlorophenyl)-5-(trifluoromethyl)(2-pyridyl)]amino}-3,4-dimethylazoline-2,5-dione] it is 625 nM.
`CC1=C(C)C(=O)N(Nc2ccc(C(F)(F)F)c(-c3ccc(C)cc3)n2)C1=O` [Compound S01393, 3,4-dimethyl-1-{[6-(4-methylphenyl)-5-(trifluoromethyl)(2-pyridyl)]amino}azoline-2,5-dione]: the IC50 is 625 nM.
On the same count and under the same terms, the figure for `CC1=C(C)C(=O)N(Nc2cc(C(F)(F)F)c3ccc(Cl)c(Cl)c3n2)C1=O` [Compound S01455, 1-{[7,8-dichloro-4-(trifluoromethyl)(2-quinolyl)]amino}-3,4-dimethylazoline-2,5-dione] is 156 nM; for `CC1=C(C)C(=O)N(Nc2ccc(C(F)(F)F)c(CC(C)C)n2)C1=O` [Compound S01457, 3,4-dimethyl-1-{[6-(2-methylpropyl)-5-(trifluoromethyl)(2-pyridyl)]amino}azoline-2,5-dione] it is 300 nM.
The same measure, in the same setting: for `CC1=C(CO)C(=O)N(Nc2ccc(C(F)(F)F)c(Cl)n2)C1=O` [Compound S01470, 1-{[6-chloro-5-(trifluoromethyl)(2-pyridyl)]amino}-3-(hydroxymethyl)-4-methylazoline-2,5-dione] the value was 200 nM.
Still for that read-out and setting: the figure for `CC(=O)N(c1ccc(C(F)(F)F)c(Cl)n1)N1C(=O)C(C)=C(C)C1=O` [Compound S01473, N-(3,4-dimethyl-2,5-dioxoazolinyl)-N-[6-chloro-5-(trifluoromethyl) (2-pyridyl)]acetamide] is 200 nM.
In the case of `CC1=C(C)C(=O)N(Nc2ccc(C(F)(F)F)c(-c3cccc(Cl)c3)n2)C1=O` [Compound S01474, 1-{[6-(3-chlorophenyl)-5-(trifluoromethyl)(2-pyridyl)]amino}-3,4-dimethylazoline-2,5-dione], the IC50 is 625 nM.
On the same count and under the same terms, for `CC1=C(C)C(=O)N(Nc2ccc(C(F)(F)F)c(C#N)n2)C1=O` [Compound S01475, 6-[(3,4-dimethyl-2,5-dioxoazolinyl)amino]-3-(trifluoromethyl)pyridine-2-carbonitrile] the value was 500 nM.
On to `CCC1=C(C)C(=O)N(Nc2ccc(C(F)(F)F)c(Cl)n2)C1=O` [Compound S01553, 1-{[6-chloro-5-(trifluoromethyl)(2-pyridyl)]amino}-3-ethyl-4-methylazoline-2,5-dione], for which the IC50 was 450 nM.
As to `CC1=C(CCC(C)C)C(=O)N(Nc2ccc(C(F)(F)F)c(Cl)n2)C1=O` [Compound S01554, 1-{[6-chloro-5-(trifluoromethyl)(2-pyridyl)]amino}-4-methyl-3-(3-methylbutyl)azoline-2,5-dione], the IC50 was found to be 120 nM.
The same measure, in the same setting: for `COCC1=C(C)C(=O)N(Nc2ccc(C(F)(F)F)c(Cl)n2)C1=O` [Compound S01599, 1-{[6-chloro-5-(trifluoromethyl)(2-pyridyl)]amino}-3-(methoxymethyl)-4-methylazoline-2,5-dione] the value was 120 nM; for `COCC1=C(C)C(=O)N(N(C)c2ccc(C(F)(F)F)c(Cl)n2)C1=O` [Compound S01600, 1-{[6-chloro-5-(trifluoromethyl)(2-pyridyl)]methylamino}-3-(methoxymethyl)-4-methylazoline-2,5-dione], 625 nM; for `COC(=O)CCC1=C(C)C(=O)N(Nc2ccc(C(F)(F)F)c(Cl)n2)C1=O` [Compound S01648, Methyl 3-(1-{[6-chloro-5-(trifluoromethyl)(2-pyridyl)]amino}-4-methyl-2,5-dioxoazolin-3-yl)propanoate], 78 nM.
On the same count and under the same terms, for `CC1=C(C)C(=O)N(Nc2cc(CN3CCN(C(=O)OCc4ccccc4)CC3)c3ccc(Br)cc3n2)C1=O` [Compound S01683, Phenylmethyl4-({2-[(3,4-dimethyl-2,5-dioxoazolinyl)amino]-7-bromo-4-quinolyl}methyl)piperazinecarboxylate] the value was 625 nM; for `CC1=C(C)C(=O)N(Nc2cc(Cl)nc(-c3ccccc3)c2C(F)(F)F)C1=O` [Compound S01688, 1-{[6-chloro-2-phenyl-3-(trifluoromethyl)(4-pyridyl)]amino}-3,4-dimethylazoline-2,5-dione], 625 nM.
`CC1=C(C)C(=O)N(Nc2cccc(-c3cccc(C(F)(F)F)c3)n2)C1=O` [Compound S01691, 3,4-dimethyl-1-({6-[3-(trifluoromethyl)phenyl](2-pyridyl)}amino)azoline-2,5-dione]: the IC50 was determined as 625 nM.
Still for that read-out and setting: the figure for `CC1=C(C)C(=O)N(Nc2cc(CN3CCN(C(=O)c4ccccc4)CC3)c3ccc(Br)cc3n2)C1=O` [Compound S01699, 1-[(7-bromo-4-{[4-(phenylcarbonyl)piperazinyl]methyl}(2-quinolyl))amino]-3,4-dimethylazoline-2,5-dione] is 625 nM.
In the case of `CCN(CC)C(=O)CCC1=C(C)C(=O)N(Nc2ccc(C(F)(F)F)c(Cl)n2)C1=O` [Compound S01711, 3-(1-{[6-chloro-5-(trifluoromethyl)(2-pyridyl)]amino}-4-methyl-2,5-dioxoazolin-3-yl)-N,N-diethylpropanamide], the IC50 came out at 156 nM.
Still for that read-out and setting: the figure for `CCOC(=O)C(CC1=C(C)C(=O)N(Nc2ccc(C(F)(F)F)c(Cl)n2)C1=O)C(=O)OCC` [Compound S01712, Diethyl 2-[(1-{[6-chloro-5-(trifluoromethyl)(2-pyridyl)]amino}-4-methyl-2,5-dioxoazolin-3-yl)methyl]propane-1,3-dioate] is 156 nM; for `CC1=C(C)C(=O)N(Nc2cc(Cl)c(C(F)(F)F)c(-c3ccccc3)n2)C1=O` [Compound S01734] it is 450 nM.
Take `CC1=C(C)C(=O)N(Nc2cc(C(F)(F)F)cc(Cl)n2)C1=O` [Compound S01737, 1-{[6-chloro-4-(trifluoromethyl)(2-pyridyl)]amino}-3,4-dimethylazoline-2,5-dione]: the IC50 worked out at 312 nM.
`CC1=C(CCC(=O)NC(C)(C)C)C(=O)N(Nc2ccc(C(F)(F)F)c(Cl)n2)C1=O` [Compound S01758, N-(tert-butyl)-3-(1-{[6-chloro-5-(trifluoromethyl)(2-pyridyl)]amino}-4-methyl-2,5-dioxoazolin-3-yl)propanamide]: the IC50 was 156 nM.
Still for that read-out and setting: for `CC1=C(CCC(=O)N(C)c2ccccc2)C(=O)N(Nc2ccc(C(F)(F)F)c(Cl)n2)C1=O` [Compound S01759, 3-(1-{[6-chloro-5-(trifluoromethyl)(2-pyridyl)]amino}-4-methyl-2,5-dioxoazolin-3-yl)-N-methyl-N-phenylpropanamide] the value was 625 nM.

Staying with this assay, now noted: Table 2; concentration causing half-maximal increase of % cells in G1 phase (G1 increment); Jurkat pre-arrested by 10 Gy X-ray, 24 hours with compound.
In the case of `CC1=C(C)C(=O)N(Nc2cc(CN3CCN(C(=O)OC(C)(C)C)CC3)c3ccc(Br)cc3n2)C1=O` [Compound S01589, tert-butyl 4-({2-[(3,4-dimethyl-2,5-dioxoazolinyl)amino]-7-bromo-4-quinolyl}methyl)piperazinecarboxylate], the 50% inhibitory concentration (IC50) turned out to be 78 nM.
